For assay [1], the system named is RKO (RKOp27) human colon adenocarcinoma cells. In words: Alamar Blue cell viability assay, anti-proliferative/cytotoxic activity on proliferating (uninduced) RKOp27 cells. It is filed as cell-based. The settings on record: 72 hours incubation, absence of the inducer Ponasterone A, read-out: IC50 RKO p27 uninduced (proliferating). The method in brief: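 RKOp27 subclones seeded at 5000 cells/well, compounds added after 24 h in DMEM/10% FCS, quadruplicates, 72 h at 37 °C, 5% CO2. Alamar Blue fluorescence (ex 544/em 590 nm) normalised to untreated cells (1% DMSO medium) as 100%; IC50 from concentration-effect curves.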
(In general: Resazurin is reduced to fluorescent resorufin, in cell work by metabolically active cells.)

Assay [2] concerns RKO colon adenocarcinoma cells (RKOp27) arrested by the expression of ectopic p27Kip1. Description: Alamar Blue cell viability assay on RKOp27 cells arrested by p27Kip1 expression induced by Ponasterone A. Conditions: Homo sapiens, 72 hours incubation, 10 μM Ponasterone A, read-out: IC50 RKO p27 induced (arrested). It is filed as cell-based. An outline of the steps:
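RKOp27 cells, 15000/well, held in DMEM with 10% FCS and with or without 10 μM Ponasterone A to induce p27Kip1 arrest. Compound dilutions added 24 h after seeding, then 72 h at 37 °C in quadruplicate. Alamar Blue fluorescence (544/590 nm) gave % viability relative to untreated cells.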

One may read the IC50 as the concentration that gives 50% inhibition.

On to `COc1ccc(C)cc1CCC(=O)Nc1sc2c(c1C#N)CCN(C(=O)CCn1cnc(C)c1)C2` [Example 157, N-{3-Cyano-6-[3-(4-methyl-imidazol-1-yl)-propanoyl]-4,5,6,7-tetrahydro-thieno[2,3-c]pyridin-2-yl}-3-(2-methoxy-5-methyl-phenyl)-propionamide], for which the IC50 in assay [1] is 300 to 2000 nM; in assay [2], no less than 10000 nM.
Regarding `COc1ccccc1CCC(=O)Nc1sc2c(c1C#N)CCN(C(=O)CCn1cc(C)nc1C)C2` [Example 161, N-{3-Cyano-6-[3-(2,4-dimethyl-imidazol-1-yl)-propanoyl]-4,5,6,7-tetrahydro-thieno[2,3-c]pyridin-2-yl}-3-(2-methoxy-phenyl)-propionamide], the IC50 is 300 to 2000 nM in assay [1] and no less than 10000 nM in assay [2].
Consider `CCOc1ccccc1CCC(=O)Nc1sc2c(c1C#N)CCN(C(=O)CCn1cc(C)nc1C)C2` [Example 162, N-{3-Cyano-6-[3-(2,4-dimethyl-imidazol-1-yl)-propanoyl]-4,5,6,7-tetrahydro-thieno[2,3-c]pyridin-2-yl}-3-(2-ethoxy-phenyl)-propionamide], for which the IC50 in assay [1] was 300 to 2000 nM; in assay [2], no less than 10000 nM.
In the case of `COc1ccc(C)cc1CCC(=O)Nc1sc2c(c1C#N)CCN(C(=O)CCn1cc(C)nc1C)C2` [Example 163, N-{3-Cyano-6-[3-(2,4-dimethyl-imidazol-1-yl)-propanoyl]-4,5,6,7-tetrahydro-thieno[2,3-c]pyridin-2-yl}-3-(2-methoxy-5-methyl-phenyl)-propionamide], the results for the IC50 in assay [1] and in assay [2] were 300 to 2000 nM and no less than 10000 nM, respectively.

Values taken from US7763728B2, “Tetrahydropyridothiophenes” (4SC AG, priority 2005, dated 2010).
